Test results from ChEMBL document CHEMBL6092169, “Development of selective heterocyclic PDE4 inhibitors for treatment of psoriasis” (Eur J Med Chem, 2024).
Blank lines part the entries; values can stand above or below the molecule they belong to. Active and inactive are the calls of the source. The rule behind the calls is not given here.

Columns and labels:
[1] = target: T1, 3',5'-cyclic-AMP phosphodiesterase 4D (Homo sapiens, UniProt Q08499); experiment: Inhibition of full-length PDE4D2 (unknown origin) using FAM-cAMP as substrate at 1 uM preincubated with compound for 15 mins followed by substrate addition and measured after 30 mins by fluorescence polarization based IMAP assay relative to control; settings: time 45.0 min
RAW264.7 [2] = experiment: Anti-inflammatory activity in mouse RAW264.7 cells assessed as inhibition of LPS-induced TNF-alpha production at 10 uM incubated for 24 hrs by ELISA relative to control; format: functional; set-up: scale not given: the % may be the effect or the level left
[3] = target: T1, 3',5'-cyclic-AMP phosphodiesterase 4D; experiment: Inhibition of full-length PDE4D2 (unknown origin) using FAM-cAMP as substrate preincubated with compound for 15 mins followed by substrate addition and measured after 30 mins by fluorescence polarization based IMAP assay
RAW264.7 [4] = experiment: Anti-inflammatory activity in mouse RAW264.7 cells assessed as inhibition of LPS-induced TNF-alpha production incubated for 24 hrs by ELISA; format: functional, cell-based; settings: RAW264.7, 24 h
RAW264.7 [5] = experiment: Anti-inflammatory activity in mouse RAW264.7 cells assessed as inhibition of LPS-induced IL-6 production incubated for 24 hrs by ELISA; format: functional, cell-based; settings: RAW264.7, 24 h
[6] = Cytotoxicity against human HaCaT cells assessed as reduction in cell viability incubated for 24 hrs by CCK-8 assay; format: toxicity, cell-based
[7] = Cytotoxicity against mouse RAW264.7 cells assessed as reduction in cell viability incubated for 24 hrs by CCK-8 assay; format: toxicity, cell-based
HaCaT = experiment: Anti-inflammatory activity in human HaCaT cells assessed as inhibition of M5-induced TNF-alpha production incubated for 24 hrs by ELISA; format: functional, cell-based
[8] = Drug absorption in suckling pig skin assessed as skin permeability by measuring steady state penetration rate administered topically as 1.2% ointment and measured upto 24 hrs by Franz diffusion cell system; format: ADME, tissue-based, Sus scrofa, Skin of body
[9] = AUC (0 to t) in male ICR mouse at 5 mg/kg, iv measured for 0.083 to 24 hrs by LC-MS/MS analysis; format: ADME, organism-based; settings: in vivo, time 0.083-24 hrs
Mus musculus [10] = experiment: (§1) Anti-inflammatory activity against imiquimod-induced psoriasis in male Balb/c mouse model assessed as reduction in erythema score at 0.3 to 1.2 % administration as ointment pretreated with IMQ for 4 hrs followed by compound addition once daily from day 2 to 8; format: functional, organism-based; settings: dose 0.3-1.2 %, time 2-8 day
[11] = Drug absorption in suckling pig skin assessed as skin permeability by measuring transdermal amount per unit area administered topically as 1.2% ointment and measured upto 24 hrs by Franz diffusion cell system; format: ADME, tissue-based, Sus scrofa, Skin of body
[12] = Half life in male ICR mouse at 5 mg/kg, iv measured for 0.083 to 24 hrs by LC-MS/MS analysis; format: ADME, organism-based; settings: in vivo, time 0.083-24 hrs
Mus musculus [13] = experiment: as §1, with “increase” for “reduction”, “skin thickness” for “erythema score”, “8 by H and E staining based microscopic analysis” for “8”; format: functional, organism-based; settings: dose 0.3-1.2 %, time 2-8 day
Mus musculus [14] = experiment: Anti-inflammatory activity against imiquimod-induced psoriasis in male Balb/c mouse model assessed as reduction in scales score at 0.3 to 1.2 % administration as ointment pretreated with IMQ for 4 hrs followed by compound addition once daily from day 2 to 8; format: functional, organism-based; settings: dose 0.3-1.2 %, time 2-8 day
Mus musculus [15] = experiment: Anti-inflammatory activity against imiquimod-induced psoriasis in male Balb/c mouse model assessed as inhibition of IL-6 expression in skin at 0.3 to 1.2 % administration as ointment pretreated with IMQ for 4 hrs followed by compound addition once daily from day 2 to 8 by ELISA; format: functional, organism-based; settings: dose 0.3-1.2 %, time 2-8 day
[16] = Initial plasma concentration in male ICR mouse at 5 mg/kg, iv measured for 0.083 to 24 hrs by LC-MS/MS analysis; format: ADME, organism-based; settings: time 0.083-24 hrs
Mus musculus [17] = experiment: as §1, with “immune cell infiltration” for “erythema score”, “8 by H and E staining based microscopic analysis” for “8”; format: functional, organism-based; settings: dose 0.3-1.2 %, time 2-8 day
[18] = Oral bioavailability in male ICR mouse at 10 mg/kg measured for 0.25 to 24 hrs by LC-MS/MS analysis; format: ADME, organism-based; settings: in vivo, time 0.25-24 hrs
Mus musculus [19] = experiment: Anti-inflammatory activity against imiquimod-induced psoriasis in male Balb/c mouse model assessed as reduction in spleen weight at 0.3 to 1.2 % administration as ointment pretreated with IMQ for 4 hrs followed by compound addition once daily from day 2 to 8; format: functional, organism-based; settings: dose 0.3-1.2 %, time 2-8 day
[20] = Clearance in male ICR mouse at 5 mg/kg, iv measured for 0.083 to 24 hrs by LC-MS/MS analysis; format: ADME, organism-based; settings: in vivo, time 0.083-24 hrs
[21] = AUC (0 to infinity) in male ICR mouse at 10 mg/kg, po measured for 0.25 to 24 hrs by LC-MS/MS analysis; format: ADME, organism-based; settings: in vivo, time 0.25-24 hrs
Mus musculus [22] = experiment: Anti-inflammatory activity against imiquimod-induced psoriasis in male Balb/c mouse model assessed as increase in skin scales at 0.3 to 1.2 % administration as ointment pretreated with IMQ for 4 hrs followed by compound addition once daily from day 2 to 8 by H and E staining based microscopic analysis; format: functional, organism-based; settings: dose 0.3-1.2 %, time 2-8 day
[23] = Cmax in male ICR mouse at 10 mg/kg, po measured for 0.25 to 24 hrs by LC-MS/MS analysis; format: ADME, organism-based; settings: in vivo, time 0.25-24 hrs
Mus musculus [24] = organism: Mus musculus; experiment: Anti-inflammatory activity against imiquimod-induced psoriasis in male Balb/c mouse model assessed as reduction in skin lesions pretreated with IMQ for 4 hrs followed by compound addition once daily from day 2 to 8; format: functional, organism-based; settings: dose 0.3-1.2 %, time 2-8 day
Mus musculus [25] = experiment: Anti-inflammatory activity against imiquimod-induced psoriasis in male Balb/c mouse model assessed as reduction in thickness score at 0.3 to 1.2 % administration as ointment pretreated with IMQ for 4 hrs followed by compound addition once daily from day 2 to 8; format: functional, organism-based; settings: dose 0.3-1.2 %, time 2-8 day
[26] = Half life in male ICR mouse at 10 mg/kg, po measured for 0.25 to 24 hrs by LC-MS/MS analysis; format: ADME, organism-based; settings: in vivo, time 0.25-24 hrs
[27] = Tmax in male ICR mouse at 10 mg/kg, po measured for 0.25 to 24 hrs by LC-MS/MS analysis; format: ADME, organism-based; settings: in vivo, time 0.25-24 hrs
Mus musculus [28] = experiment: Anti-inflammatory activity against imiquimod-induced psoriasis in male Balb/c mouse model assessed as inhibition of TNF-alpha expression in skin at 0.3 to 1.2 % administration as ointment pretreated with IMQ for 4 hrs followed by compound addition once daily from day 2 to 8 by ELISA; format: functional, organism-based; settings: dose 0.3-1.2 %, time 2-8 day
Mus musculus [29] = experiment: as §1, with “Ki67+ cells in back skin” for “erythema score”, “8 by Immunohistochemistry based microscopic analysis” for “8”; format: functional, organism-based; settings: dose 0.3-1.2 %, time 2-8 day
[30] = AUC (0 to t) in male ICR mouse at 10 mg/kg, po measured for 0.25 to 24 hrs by LC-MS/MS analysis; format: ADME, organism-based; settings: in vivo, time 0.25-24 hrs
[31] = Apparent volume of distribution in male ICR mouse at 5 mg/kg, iv measured for 0.083 to 24 hrs by LC-MS/MS analysis; format: ADME, organism-based; settings: in vivo, time 0.083-24 hrs, read-out: Vz
[32] = AUC (0 to infinity) in male ICR mouse at 5 mg/kg, iv measured for 0.083 to 24 hrs by LC-MS/MS analysis; format: ADME, organism-based; settings: in vivo, time 0.083-24 hrs

T1 sequence (Q08499 whole entry): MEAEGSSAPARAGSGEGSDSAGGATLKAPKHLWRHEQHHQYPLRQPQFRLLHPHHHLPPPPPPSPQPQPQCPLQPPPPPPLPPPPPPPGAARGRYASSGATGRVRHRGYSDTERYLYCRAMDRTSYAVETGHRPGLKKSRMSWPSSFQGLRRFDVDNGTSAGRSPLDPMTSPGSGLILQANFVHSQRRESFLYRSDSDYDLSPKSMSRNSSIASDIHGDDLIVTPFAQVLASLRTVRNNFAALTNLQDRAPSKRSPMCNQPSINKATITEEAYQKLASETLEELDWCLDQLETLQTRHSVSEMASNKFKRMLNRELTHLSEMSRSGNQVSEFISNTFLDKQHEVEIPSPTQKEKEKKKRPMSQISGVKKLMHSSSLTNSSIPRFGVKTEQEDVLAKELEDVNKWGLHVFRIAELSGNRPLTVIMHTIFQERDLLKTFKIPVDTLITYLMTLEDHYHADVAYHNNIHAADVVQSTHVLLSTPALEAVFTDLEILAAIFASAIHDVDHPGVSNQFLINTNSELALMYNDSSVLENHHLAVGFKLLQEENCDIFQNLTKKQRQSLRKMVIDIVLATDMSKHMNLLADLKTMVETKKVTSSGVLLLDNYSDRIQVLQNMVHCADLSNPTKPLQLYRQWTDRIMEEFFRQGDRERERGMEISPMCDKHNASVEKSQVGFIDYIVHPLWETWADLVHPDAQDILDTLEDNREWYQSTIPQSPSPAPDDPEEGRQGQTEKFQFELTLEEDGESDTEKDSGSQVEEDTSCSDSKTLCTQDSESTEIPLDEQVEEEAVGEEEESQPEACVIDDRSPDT

Structure (SMILES): O=C(Nc1nccs1)c1coc(-c2ccc(OC(F)F)c(OCC3CC3)c2)n1
inhibition [1]: 57%
Activity (RAW264.7 [2]): 11.17%

Structure (SMILES): O=C(NCc1ccccc1)c1coc(-c2ccc(OC(F)F)c(OCC3CC3)c2)n1
inhibition [1]: 89.8%
Activity (RAW264.7 [2]): 8.13%

Structure (SMILES): O=C(O)c1c[nH]c(-c2ccc(OC(F)F)c(OCC3CC3)c2)n1
inhibition [1]: 35.7%
Activity (RAW264.7 [2]): 4.22%

Structure (SMILES): O=C(NCc1ccc2ccccc2c1)c1c[nH]c(-c2ccc(OC(F)F)c(OCC3CC3)c2)n1
inhibition [1]: 82.3%
Activity (RAW264.7 [2]): 9.03%

Structure (SMILES): O=C(NCc1ccc(F)c(F)c1)c1c[nH]c(-c2ccc(OC(F)F)c(OCC3CC3)c2)n1
IC50 [3]: 0.0149 µM
Activity (RAW264.7 [2]): 12.03%

Structure (SMILES): O=C(NCc1c(F)cc(F)cc1F)c1coc(-c2ccc(OC(F)F)c(OCC3CC3)c2)n1
inhibition [1]: 87.8%
Activity (RAW264.7 [2]): 7.53%

Structure (SMILES): O=C(NCc1ccccc1)c1c[nH]c(-c2ccc(OC(F)F)c(OCC3CC3)c2)n1
inhibition [1]: 91.1%
Activity (RAW264.7 [2]): 8.88%

Structure (SMILES): O=C(NCc1ncccn1)c1c[nH]c(-c2cc(OCC3CC3)c(OC(F)F)c(OCC3CC3)c2)n1
inhibition [1]: 1.8%

Structure (SMILES): O=C(O)c1coc(-c2ccc(OC(F)F)c(OCC3CC3)c2)n1
inhibition [1]: 46.2%
Activity (RAW264.7 [2]): 10.47%

Structure (SMILES): O=C(NCc1ccc(F)cc1F)c1coc(-c2ccc(OC(F)F)c(OCC3CC3)c2)n1
inhibition [1]: 67.6%
Activity (RAW264.7 [2]): 18.06%

Structure (SMILES): O=C(Nc1ccncc1)c1c[nH]c(-c2ccc(OC(F)F)c(OCC3CC3)c2)n1
inhibition [1]: 99.3%
Activity (RAW264.7 [2]): 15.37%

Structure (SMILES): O=C(NCc1cc(F)ccc1F)c1c[nH]c(-c2ccc(OC(F)F)c(OCC3CC3)c2)n1
Jss [8]: 3.45 ug/cm2.hr
AUC(0-t) [9]: 5010 ng·h/mL
Activity (Mus musculus [10]): Active
Drug absorption [11]: 81.9 microg/cm2
half-life [12]: 0.94 h
Activity (Mus musculus [13]): Active
IC50 (RAW264.7 [4]): 21.4 µM
Activity (Mus musculus [14]): Active
Activity (Mus musculus [15]): Active
C0 [16]: 7320 ng/mL
Activity (Mus musculus [17]): Active
bioavailability [18]: 35.6%
IC50 (RAW264.7 [5]): 29.2 µM
Activity (Mus musculus [19]): Active
clearance [20]: 16.6 mL/min/kg
CC50 at 24 h [6]: > 50 µM
AUC(0-inf) [21]: 3930 ng·h/mL
Activity (Mus musculus [22]): Active
Cmax [23]: 810 ng/mL
Activity (Mus musculus [24]): Dose-dependent-effect
Activity (Mus musculus [25]): Active
CC50 at 24 h [7]: > 50 µM
half-life [26]: 2.21 h
Tmax [27]: 1 h
Activity (Mus musculus [28]): Active
Activity (Mus musculus [29]): Active
IC50 (HaCaT): 22.9 µM
AUC(0-t) [30]: 3570 ng·h/mL
Vd [31]: 1.35 L/kg
AUC(0-inf) [32]: 5020 ng·h/mL

Structure (SMILES): O=C(Nc1ccccc1)c1c[nH]c(-c2ccc(OC(F)F)c(OCC3CC3)c2)n1
inhibition [1]: 64.9%
Activity (RAW264.7 [2]): 9.32%

Further lines, with some results ahead:

inhibition [1]: 83.5%
Structure (SMILES): O=C(Nc1ccc2[nH]ccc2c1)c1c[nH]c(-c2ccc(OC(F)F)c(OCC3CC3)c2)n1
Activity (RAW264.7 [2]): 21.36%

inhibition [1]: 0.8%
Structure (SMILES): COc1cc(-c2nc(C(=O)NCc3ncccn3)c[nH]2)cc(OC)c1OC(F)F

IC50 [3]: 0.0005 µM
IC50 (RAW264.7 [4]): 27.3 µM
IC50 (RAW264.7 [5]): 38.4 µM
Structure (SMILES): O=C(NCc1ncccn1)c1c[nH]c(-c2ccc(OC(F)F)c(OCC3CC3)c2)n1
CC50 at 24 h [6]: > 50 µM
CC50 at 24 h [7]: > 50 µM
IC50 (HaCaT): 19.3 µM

inhibition [1]: 59%
Structure (SMILES): O=C(Nc1ccncc1)c1coc(-c2ccc(OC(F)F)c(OCC3CC3)c2)n1
Activity (RAW264.7 [2]): 1.77%

inhibition [1]: 39.6%
Structure (SMILES): O=C(Nc1ccc2ncsc2c1)c1coc(-c2ccc(OC(F)F)c(OCC3CC3)c2)n1
Activity (RAW264.7 [2]): 25.05%

IC50 [3]: 0.00474 µM
Structure (SMILES): O=C(NCc1ccc(F)cc1F)c1c[nH]c(-c2ccc(OC(F)F)c(OCC3CC3)c2)n1
Activity (RAW264.7 [2]): 5.16%
